Measured values: the supplement of paper PMC10331698
± gives the standard deviation of the averaged measurements.

Legend:
Assay in all cases: LOEC (log10 uM (lowest observed effect concentration))
[1] = compound: C=CC(=O)OCC(F)(F)C(F)(F)C(F)(F)COC(=O)C=C [1H,1H,5H,5H-Perfluoro-1,5-pentanediol diacrylate]
Protocol: (§1)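 BioMAP Diversity Plus panel in human primary cell co-cultures, 4 concentrations in duplicate blinded samples. Responses are log10 fold change versus DMSO control, processed with tcpl v2.1.0. A hit is called when responses at any concentration exceed the cutoff (the larger of 3*bmad or log10(1.2)); the lowest observed effect concentration (modl_ga, log10 uM) is reported for hits.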

[2] = compound: O=C(O)C(F)(F)C(F)(F)C(F)(F)C(F)(F)C(F)(F)C(F)(F)C(F)(F)C(F)(F)C(F)(F)C(F)F [11-H-Perfluoroundecanoic acid]
Protocol: as §1

[3] = compound: O=S(=O)(Cl)C(F)(F)C(F)(F)C(F)(F)C(F)(F)C(F)(F)C(F)(F)C(F)(F)C(F)(F)F [Perfluoro-1-octanesulfonyl chloride]
Protocol: as §1

[4] = compound: NS(=O)(=O)C(F)(F)C(F)(F)C(F)(F)C(F)(F)C(F)(F)C(F)(F)F [Perfluorohexanesulfonamide]
Protocol: as §1

Test System | LOEC (log10 uM) [1] | LOEC (log10 uM) [2] | LOEC (log10 uM) [3] | LOEC (log10 uM) [4]
MyoF PAI1 down | 1.3 | 1.78 |  | 
KF3CT MCP1 down | 1.3 | 1.3 |  | 
SAg Eselectin up |  |  | 1.78 | 
IMphg MCSF down |  |  |  | 1.07 ± 0.32
BE3C EGFR down |  | 1.3 | 1.78 | 
BE3C SRB down |  | 1.3 | 1.78 | 
BE3C HLADR down | 1.3 | 1.3 | 1.78 | 
KF3CT PAI1 down | 1.3 | 1.3 | 1.3 | 
BE3C IL1a down | 1.3 | 1.3 | 1.78 | 
SAg MCP1 down | 0.845 | 1.78 |  | 
IMphg VCAM1 down | 1.07 ± 0.32 | 1.78 |  | 
KF3CT uPA down | 1.3 | 1.78 |  | 
SAg Eselectin down | 0.845 | 1.78 |  | 1.78
KF3CT SRB down | 1.3 | 1.78 |  | 
4H Eotaxin3 down | 0.845 | 1.78 |  | 1.78
LPS CD40 down | 0.845 | 1.78 |  | 1.78
hDFCGF Proliferation down | 0.301 | 0.845 |  | 1.78
LPS Thrombomodulin up | 1.3 | 1.31 ± 0.66 |  | 
LPS CD69 down | 1.3 | 1.78 |  | 1.78
3C Thrombomodulin up | 1.3 | 1.78 | 1.78 | 
SAg CD40 down | 0.845 | 1.78 |  | 1.78
3C Eselectin up |  |  | 1.78 | 
KF3CT MIG down | 1.3 | 1.78 |  | 
4H VCAM1 down | 1.3 | 1.78 |  | 
IMphg ESelectin down | 1.3 |  |  | 1.78

Test System | LOEC (log10 uM) [1] | LOEC (log10 uM) [2] | LOEC (log10 uM) [3] | LOEC (log10 uM) [4]
SAg IL8 down | 0.845 | 1.78 |  | 1.78
BT Bcell Proliferation up |  |  | 1.78 | 
BF4T MMP3 down |  | 1.78 |  | 
BF4T VCAM1 down | 1.3 |  |  | 1.54 ± 0.34
KF3CT IL1a down | 0.573 ± 0.39 | 1.78 |  | 
BF4T SRB down | 1.78 | 1.3 | 1.78 | 
hDFCGF PAI1 down | 0.845 | 1.78 |  | 
IMphg MCP1 down | 1.3 | 1.78 |  | 1.78
3C HLADR down | 1.07 ± 0.32 |  |  | 1.78
SAg PBMCCytotoxicity up |  |  |  | 1.78
IMphg SRB.Mphg down | 1.78 | 1.78 |  | 
IMphg CD40 down | 1.3 |  |  | 1.78
BF4T ICAM1 down | 1.07 ± 0.32 | 1.3 | 1.78 | 
LPS SRB down | 1.3 | 1.78 |  | 
BF4T IL1a down | 1.78 | 1.54 ± 0.34 | 1.78 | 
3C MCP1 down | 1.3 | 1.78 |  | 
IMphg CD69 down | 1.78 |  |  | 1.78
BE3C uPA down | 1.78 | 1.3 | 1.78 | 
BF4T Eotaxin3 down | 1.78 | 0.801 ± 0.71 | 1.78 | 
BF4T CD90 down |  | 1.54 ± 0.34 |  | 
BF4T uPA down | 1.78 | 1.78 | 1.78 | 
hDFCGF MCSF down | 0.301 | 1.54 ± 0.34 |  | 
BE3C MIG down | 1.78 | 1.3 | 1.78 | 
BF4T PAI1 down | 1.3 | 0.801 ± 0.71 | 1.78 | 
LPS PGE2 up |  |  |  | 1.54 ± 0.34

Test System | LOEC (log10 uM) [1] | LOEC (log10 uM) [2] | LOEC (log10 uM) [3] | LOEC (log10 uM) [4]
3C uPAR down | 1.78 |  | 1.78 | 
SAg CD38 down | 1.07 ± 0.32 | 1.78 |  | 
4H SRB down | 1.3 | 1.78 |  | 1.78
hDFCGF MCP1 down | 0.301 | 1.78 |  | 
LPS VCAM1 down | 1.07 ± 0.32 | 1.78 |  | 1.78
BE3C ICAM1 down | 1.3 | 1.3 | 1.78 | 
hDFCGF TIMP2 down |  |  |  | 1.78
LPS MCP1 down | 1.3 | 1.78 |  | 
SAg Proliferation down | 0.301 | 1.78 |  | 
BF4T tPA down | 1.3 | 0.845 | 1.54 ± 0.34 | 
hDFCGF MCP1 up |  |  |  | 1.78
BF4T Keratin818 down | 1.78 | 1.78 |  | 
BT PBMCCytotoxicity up |  | 1.78 | 1.78 | 
KF3CT MMP9 down | 1.3 | 1.3 | 1.78 | 
3C IL8 up |  |  | 1.78 | 
3C Proliferation down | 0.301 | 1.78 |  | 1.78
BF4T MMP9 down | 1.3 | 1.3 | 1.78 | 
hDFCGF MIG down | 0.301 | 0.573 ± 0.39 |  | 
LPS PGE2 down | 1.3 | 1.78 | 1.78 | 
LPS Eselectin down | 1.3 | 1.78 |  | 
SAg SRB down | 1.3 | 1.78 | 1.78 | 
SAg CD69 down | 0.845 | 1.78 |  | 1.78
hDFCGF CollagenIII down | 0.573 ± 0.39 | 0.845 |  | 
